Measurements as given in ChEMBL document CHEMBL4800722, “Data for DCP probe BI 605906” (2021).

Key:
[1] = molecular target: Cyclin-dependent kinase-like 5 (Homo sapiens) (UniProt O76039); assay: CDKL5 Invitrogen Lab (UK) kinase screen (BI); settings: Compound concentration 1.0 uM
[2] = molecular target: Serine/threonine-protein kinase Chk2 (Homo sapiens) (UniProt O96017); assay: CHK2 DUNDEE kinase screen (BI); settings: Compound concentration 10.0 uM
[3] = molecular target: G protein-coupled receptor kinase 5 (Homo sapiens) (UniProt P34947); settings: Compound concentration 1.0 uM
[4] = molecular target: Serine/threonine-protein kinase 25 (Homo sapiens) (UniProt O00506); settings: Compound concentration 1.0 uM
[5] = molecular target: Phosphatidylinositol 4-kinase type 2-beta (Homo sapiens) (UniProt Q8TCG2); assay: PI4K2B Invitrogen Lab (UK) kinase screen (BI); settings: Compound concentration 1.0 uM
[6] = molecular target: Serine/threonine-protein kinase/endoribonuclease IRE1 (Homo sapiens) (UniProt O75460); settings: Compound concentration 1.0 uM
[7] = molecular target: Tyrosine-protein kinase Fgr (Homo sapiens) (UniProt P09769); assay: FGR Invitrogen Lab (UK) kinase screen (BI); settings: Compound concentration 1.0 uM
[8] = molecular target: D(3) dopamine receptor (Homo sapiens) (UniProt P35462); settings: Compound concentration 10.0 uM
[9] = molecular target: MAP kinase-interacting serine/threonine-protein kinase 1 (Homo sapiens) (UniProt Q9BUB5); assay: MNK1 DUNDEE kinase screen (BI); settings: Compound concentration 10.0 uM
[10] = molecular target: AP2-associated protein kinase 1 (Homo sapiens, UniProt Q2M2I8)
AP2-associated protein kinase 1, sequence (Q2M2I8 whole entry, looked up, canonical isoform): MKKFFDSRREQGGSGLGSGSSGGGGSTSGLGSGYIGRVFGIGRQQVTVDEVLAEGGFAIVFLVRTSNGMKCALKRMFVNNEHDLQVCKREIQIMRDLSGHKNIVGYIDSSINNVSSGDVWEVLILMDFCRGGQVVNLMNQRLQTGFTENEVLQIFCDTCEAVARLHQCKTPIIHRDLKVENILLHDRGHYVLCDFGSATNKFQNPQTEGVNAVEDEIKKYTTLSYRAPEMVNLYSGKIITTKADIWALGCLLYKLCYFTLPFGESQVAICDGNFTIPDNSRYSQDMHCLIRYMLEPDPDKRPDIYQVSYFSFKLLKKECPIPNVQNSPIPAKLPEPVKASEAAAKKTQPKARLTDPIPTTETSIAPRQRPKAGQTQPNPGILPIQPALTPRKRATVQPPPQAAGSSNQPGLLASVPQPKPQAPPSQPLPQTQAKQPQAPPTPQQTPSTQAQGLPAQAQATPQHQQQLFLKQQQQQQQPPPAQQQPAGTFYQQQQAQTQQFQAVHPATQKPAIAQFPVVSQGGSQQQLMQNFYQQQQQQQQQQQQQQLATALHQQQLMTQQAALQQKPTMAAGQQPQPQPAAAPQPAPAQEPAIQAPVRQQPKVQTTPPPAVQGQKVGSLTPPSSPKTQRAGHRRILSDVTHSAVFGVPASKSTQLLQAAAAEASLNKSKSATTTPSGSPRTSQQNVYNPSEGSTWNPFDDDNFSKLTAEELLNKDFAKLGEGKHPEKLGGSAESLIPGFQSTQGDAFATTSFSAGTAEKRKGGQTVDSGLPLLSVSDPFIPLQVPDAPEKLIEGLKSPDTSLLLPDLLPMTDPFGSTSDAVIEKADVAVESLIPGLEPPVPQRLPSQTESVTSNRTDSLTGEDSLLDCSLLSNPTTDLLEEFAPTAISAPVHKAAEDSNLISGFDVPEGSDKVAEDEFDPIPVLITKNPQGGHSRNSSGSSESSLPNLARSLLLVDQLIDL

[11] = molecular target: Phosphorylase b kinase gamma catalytic chain, skeletal muscle/heart isoform (Homo sapiens) (UniProt Q16816); assay: PHKG1 Invitrogen Lab (UK) kinase screen (BI); settings: Compound concentration 1.0 uM
[12] = molecular target: Serine/threonine-protein kinase Nek6 (Homo sapiens) (UniProt Q9HC98); settings: Compound concentration 1.0 uM
[13] = molecular target: Serine/threonine-protein kinase Sgk1 (Homo sapiens) (UniProt O00141); settings: Compound concentration 10.0 uM
[14] = molecular target: AMPK alpha2/beta1/gamma1 (Homo sapiens) (UniProt P54646+P54619+Q9Y478); assay: AMPK A2B1G1 Invitrogen Lab (UK) kinase screen (BI); type: protein-complex assay; settings: Compound concentration 1.0 uM
[15] = molecular target: Hepatocyte growth factor receptor (Homo sapiens) (UniProt P08581)
Hepatocyte growth factor receptor (Homo sapiens), sequence (P08581 whole entry): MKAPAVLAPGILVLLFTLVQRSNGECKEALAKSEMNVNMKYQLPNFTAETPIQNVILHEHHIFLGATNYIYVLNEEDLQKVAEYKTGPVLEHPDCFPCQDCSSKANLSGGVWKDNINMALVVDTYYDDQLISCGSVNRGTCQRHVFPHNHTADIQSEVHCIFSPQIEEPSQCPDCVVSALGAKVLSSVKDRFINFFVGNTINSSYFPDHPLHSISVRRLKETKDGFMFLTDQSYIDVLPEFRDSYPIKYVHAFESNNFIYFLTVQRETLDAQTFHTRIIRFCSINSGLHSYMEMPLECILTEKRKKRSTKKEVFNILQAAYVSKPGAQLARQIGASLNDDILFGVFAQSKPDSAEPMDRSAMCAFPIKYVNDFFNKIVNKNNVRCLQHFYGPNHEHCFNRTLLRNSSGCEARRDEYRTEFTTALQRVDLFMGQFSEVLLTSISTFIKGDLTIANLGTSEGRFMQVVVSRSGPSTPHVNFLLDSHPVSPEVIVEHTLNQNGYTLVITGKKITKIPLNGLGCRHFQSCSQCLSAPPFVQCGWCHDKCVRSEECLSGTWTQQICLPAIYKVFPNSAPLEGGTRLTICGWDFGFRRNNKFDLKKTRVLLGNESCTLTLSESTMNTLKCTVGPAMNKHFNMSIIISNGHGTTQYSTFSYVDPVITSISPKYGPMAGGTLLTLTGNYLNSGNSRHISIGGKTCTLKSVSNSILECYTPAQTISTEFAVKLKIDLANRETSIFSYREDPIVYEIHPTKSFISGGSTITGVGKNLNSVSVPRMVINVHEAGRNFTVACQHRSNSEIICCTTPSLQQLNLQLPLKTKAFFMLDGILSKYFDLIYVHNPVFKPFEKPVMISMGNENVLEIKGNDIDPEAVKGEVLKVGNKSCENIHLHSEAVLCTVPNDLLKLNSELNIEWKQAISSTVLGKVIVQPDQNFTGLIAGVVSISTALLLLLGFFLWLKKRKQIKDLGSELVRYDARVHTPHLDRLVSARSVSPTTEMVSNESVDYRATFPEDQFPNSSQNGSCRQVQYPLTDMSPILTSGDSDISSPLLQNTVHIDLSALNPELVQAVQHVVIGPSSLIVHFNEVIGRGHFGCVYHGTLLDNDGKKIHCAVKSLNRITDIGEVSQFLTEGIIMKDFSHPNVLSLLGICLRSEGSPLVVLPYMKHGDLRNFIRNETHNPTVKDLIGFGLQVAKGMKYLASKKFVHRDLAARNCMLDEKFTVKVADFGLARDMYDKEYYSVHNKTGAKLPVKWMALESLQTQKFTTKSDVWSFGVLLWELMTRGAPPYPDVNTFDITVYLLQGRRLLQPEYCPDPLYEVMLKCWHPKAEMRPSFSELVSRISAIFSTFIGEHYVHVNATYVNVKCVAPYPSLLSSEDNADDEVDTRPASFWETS

[16] = molecular target: Tyrosine-protein kinase Fyn (Homo sapiens) (UniProt P06241); settings: Compound concentration 1.0 uM
[17] = molecular target: Leukotriene A-4 hydrolase (Cavia porcellus) (UniProt P19602); settings: Compound concentration 10.0 uM
[18] = molecular target: Sigma intracellular receptor 2 (Homo sapiens) (UniProt Q5BJF2); settings: Compound concentration 10.0 uM
[19] = molecular target: Mitogen-activated protein kinase kinase kinase 10 (Homo sapiens) (UniProt Q02779); settings: Compound concentration 1.0 uM
[20] = molecular target: Phosphatidylinositol 4-phosphate 3-kinase C2 domain-containing subunit beta (Homo sapiens) (UniProt O00750); settings: Compound concentration 1.0 uM
[21] = molecular target: 5-hydroxytryptamine receptor 7 (Homo sapiens) (UniProt P34969); settings: Compound concentration 10.0 uM
[22] = molecular target: Protein kinase C iota type (Homo sapiens) (UniProt P41743); settings: Compound concentration 1.0 uM
Rattus norvegicus = species on record: Rattus norvegicus; settings: Compound concentration 10.0 uM
[23] = molecular target: D(1A) dopamine receptor (Homo sapiens) (UniProt P21728); settings: Compound concentration 10.0 uM
[24] = molecular target: Death-associated protein kinase 2 (Homo sapiens) (UniProt Q9UIK4); assay: DAPK2 Invitrogen Lab (UK) kinase screen (BI); settings: Compound concentration 1.0 uM
[25] = molecular target: Serine/threonine-protein kinase D3 (Homo sapiens) (UniProt O94806); settings: Compound concentration 1.0 uM
[26] = molecular target: Insulin-like growth factor 1 receptor (Homo sapiens) (UniProt P08069)
Insulin-like growth factor 1 receptor (Homo sapiens), sequence (P08069 31-736 limits assumed): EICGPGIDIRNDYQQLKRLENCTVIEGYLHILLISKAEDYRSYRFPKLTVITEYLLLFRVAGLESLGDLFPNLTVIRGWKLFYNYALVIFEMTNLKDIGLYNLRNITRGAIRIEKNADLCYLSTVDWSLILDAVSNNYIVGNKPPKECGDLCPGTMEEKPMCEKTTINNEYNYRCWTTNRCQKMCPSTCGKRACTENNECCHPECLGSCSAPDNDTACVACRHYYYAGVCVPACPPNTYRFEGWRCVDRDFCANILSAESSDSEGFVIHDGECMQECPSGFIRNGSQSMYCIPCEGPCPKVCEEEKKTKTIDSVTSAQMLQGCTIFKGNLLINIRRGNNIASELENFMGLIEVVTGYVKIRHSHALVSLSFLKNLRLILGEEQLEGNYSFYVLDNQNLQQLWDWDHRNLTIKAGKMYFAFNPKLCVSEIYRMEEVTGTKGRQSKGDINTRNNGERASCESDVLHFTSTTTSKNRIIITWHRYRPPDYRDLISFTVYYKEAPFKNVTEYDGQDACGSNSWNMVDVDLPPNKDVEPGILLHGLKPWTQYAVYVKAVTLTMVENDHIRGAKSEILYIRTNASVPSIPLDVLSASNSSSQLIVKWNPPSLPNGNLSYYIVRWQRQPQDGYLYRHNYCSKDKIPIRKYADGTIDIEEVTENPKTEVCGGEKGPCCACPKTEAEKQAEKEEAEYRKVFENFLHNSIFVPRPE
Insulin-like growth factor 1 receptor (Homo sapiens), sequence (P08069 741-1367 limits assumed): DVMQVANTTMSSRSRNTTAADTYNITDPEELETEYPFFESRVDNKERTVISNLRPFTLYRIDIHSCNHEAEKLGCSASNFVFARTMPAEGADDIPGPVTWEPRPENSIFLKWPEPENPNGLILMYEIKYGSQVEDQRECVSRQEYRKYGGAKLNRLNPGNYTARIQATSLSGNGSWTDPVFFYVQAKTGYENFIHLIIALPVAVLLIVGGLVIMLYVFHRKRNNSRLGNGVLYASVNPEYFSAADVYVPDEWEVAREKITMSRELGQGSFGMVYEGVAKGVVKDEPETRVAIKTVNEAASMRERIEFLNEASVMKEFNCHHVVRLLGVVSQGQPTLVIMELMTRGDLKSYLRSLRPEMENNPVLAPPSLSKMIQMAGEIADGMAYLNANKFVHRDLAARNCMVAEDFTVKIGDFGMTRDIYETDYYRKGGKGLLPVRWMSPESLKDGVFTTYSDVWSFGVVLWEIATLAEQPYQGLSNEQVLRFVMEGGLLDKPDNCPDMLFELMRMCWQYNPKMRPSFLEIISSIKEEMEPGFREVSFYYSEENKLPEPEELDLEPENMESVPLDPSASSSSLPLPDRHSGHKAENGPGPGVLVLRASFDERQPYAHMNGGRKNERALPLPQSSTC

[27] = molecular target: Misshapen-like kinase 1 (Homo sapiens) (UniProt Q8N4C8); settings: Compound concentration 1.0 uM
[28] = molecular target: Sodium-dependent serotonin transporter (Homo sapiens) (UniProt P31645); settings: Compound concentration 10.0 uM
[29] = molecular target: Dual specificity protein kinase CLK4 (Homo sapiens) (UniProt Q9HAZ1); assay: CLK4 Invitrogen Lab (UK) kinase screen (BI); settings: Compound concentration 1.0 uM
[30] = molecular target: Calcium/calmodulin-dependent protein kinase kinase 2 (Homo sapiens) (UniProt Q96RR4); settings: Compound concentration 1.0 uM
[31] = molecular target: Histamine H4 receptor (Homo sapiens) (UniProt Q9H3N8); settings: Compound concentration 10.0 uM
[32] = molecular target: Wee1-like protein kinase (Homo sapiens) (UniProt P30291); settings: Compound concentration 1.0 uM
[33] = molecular target: GABA B receptor (Rattus norvegicus) (UniProt Q9Z0U4+O88871); assay: GABAB/RA Eurofins SafetyScreen44 (BI); type: protein-complex assay; settings: Compound concentration 10.0 uM
[34] = molecular target: Serine/threonine-protein kinase 3 (Homo sapiens) (UniProt Q13188); assay: STK3 Invitrogen Lab (UK) kinase screen (BI); settings: Compound concentration 1.0 uM
[35] = molecular target: Receptor tyrosine-protein kinase erbB-2 (Homo sapiens) (UniProt P04626)
Receptor tyrosine-protein kinase erbB-2 (Homo sapiens), sequence (P04626 whole entry): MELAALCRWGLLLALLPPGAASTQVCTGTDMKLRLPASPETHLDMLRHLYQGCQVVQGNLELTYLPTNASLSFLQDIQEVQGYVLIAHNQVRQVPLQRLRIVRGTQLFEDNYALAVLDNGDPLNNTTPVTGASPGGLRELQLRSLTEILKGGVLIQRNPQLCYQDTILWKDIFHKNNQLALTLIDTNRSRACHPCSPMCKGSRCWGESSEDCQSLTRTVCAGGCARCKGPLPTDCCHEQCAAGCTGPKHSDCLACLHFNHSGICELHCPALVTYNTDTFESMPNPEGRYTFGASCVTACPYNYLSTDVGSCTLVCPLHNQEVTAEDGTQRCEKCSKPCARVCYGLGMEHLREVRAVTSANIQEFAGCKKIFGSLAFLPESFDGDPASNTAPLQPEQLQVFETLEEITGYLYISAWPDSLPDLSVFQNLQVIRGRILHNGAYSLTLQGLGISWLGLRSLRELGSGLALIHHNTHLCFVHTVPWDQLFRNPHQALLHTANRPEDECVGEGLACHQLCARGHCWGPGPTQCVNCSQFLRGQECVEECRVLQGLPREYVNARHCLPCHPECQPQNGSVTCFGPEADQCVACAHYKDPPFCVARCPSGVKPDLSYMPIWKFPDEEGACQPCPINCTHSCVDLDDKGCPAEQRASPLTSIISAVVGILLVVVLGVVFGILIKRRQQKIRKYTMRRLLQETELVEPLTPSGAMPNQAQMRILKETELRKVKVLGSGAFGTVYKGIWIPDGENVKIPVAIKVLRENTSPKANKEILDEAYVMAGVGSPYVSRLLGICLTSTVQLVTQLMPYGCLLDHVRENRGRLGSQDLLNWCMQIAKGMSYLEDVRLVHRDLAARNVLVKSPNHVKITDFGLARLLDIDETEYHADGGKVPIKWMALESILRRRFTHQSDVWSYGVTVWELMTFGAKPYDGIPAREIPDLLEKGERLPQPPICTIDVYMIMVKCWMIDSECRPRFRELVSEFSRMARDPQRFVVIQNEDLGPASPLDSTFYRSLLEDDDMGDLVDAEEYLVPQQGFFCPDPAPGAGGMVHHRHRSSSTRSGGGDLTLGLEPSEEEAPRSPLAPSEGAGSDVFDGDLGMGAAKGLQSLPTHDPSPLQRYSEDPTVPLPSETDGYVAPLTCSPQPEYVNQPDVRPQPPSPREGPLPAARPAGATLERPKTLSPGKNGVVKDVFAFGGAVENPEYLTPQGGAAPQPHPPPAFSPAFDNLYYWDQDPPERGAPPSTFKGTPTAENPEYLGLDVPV

[36] = molecular target: Phosphodiesterase 3 (Homo sapiens) (UniProt Q14432+Q13370); assay: PDE-III/HU Eurofins SafetyScreen44 (BI); type: protein assay; settings: Compound concentration 10.0 uM
[37] = molecular target: Serine/threonine-protein kinase MRCK gamma (Homo sapiens) (UniProt Q6DT37); assay: CDC42 BPG (MRCKG) Invitrogen Lab (UK) kinase screen (BI); settings: Compound concentration 1.0 uM
[38] = molecular target: Serine/threonine-protein kinase D1 (Homo sapiens) (UniProt Q15139); assay: PKD1 DUNDEE kinase screen (BI); settings: Compound concentration 10.0 uM
[39] = molecular target: Cyclin-dependent kinase 16 (Homo sapiens) (UniProt Q00536); settings: Compound concentration 1.0 uM
[40] = molecular target: Lymphokine-activated killer T-cell-originated protein kinase (Homo sapiens) (UniProt Q96KB5); settings: Compound concentration 10.0 uM
[41] = molecular target: AMP-activated protein kinase alpha-1/beta-2/gamma-3 (Homo sapiens) (UniProt O43741+Q13131+Q9UGI9); settings: Compound concentration 1.0 uM
[42] = molecular target: Calcium/calmodulin-dependent protein kinase kinase 1 (Homo sapiens) (UniProt Q8N5S9); settings: Compound concentration 1.0 uM

CCC(F)(F)c1cc(N2CCC(S(C)(=O)=O)CC2)nc2sc(C(N)=O)c(N)c12 [BI-605906]
residual activity [1]: 103%
residual activity [2]: 49.7%
residual activity [3]: 96%
residual activity [4]: 100%
residual activity [5]: 102%
residual activity [6]: 82%
residual activity [7]: 78%
inhibition [8]: 51.5%
residual activity [9]: 93.8%
residual activity ([10]; Compound concentration 0.001 uM): 101%
residual activity ([10]; Compound concentration 1.0 uM): 13%
residual activity ([10]; Compound concentration 20.0 uM): 4%
residual activity [11]: 103%
residual activity [12]: 95%
residual activity [13]: 101%
residual activity [14]: 88%
residual activity ([15]; Compound concentration 1.0 uM): 103%
residual activity ([15]; Compound concentration 10.0 uM): 90%
residual activity [16]: 89%
residual activity [17]: 93%
inhibition [18]: 34.5%
residual activity [19]: 98%
residual activity [20]: 101%
inhibition [21]: 13.7%
residual activity [22]: 105%
inhibition (Rattus norvegicus): 51.9%
residual activity [23]: 101%
residual activity [24]: 79%
residual activity [25]: 91%
residual activity ([26]; Compound concentration 1.0 uM): 95%
residual activity ([26]; Compound concentration 10.0 uM): 99%
residual activity [27]: 96%
residual activity [28]: 108%
residual activity [29]: 69%
residual activity [30]: 93%
inhibition [31]: -1.66%
residual activity [32]: 82%
residual activity [33]: 113%
residual activity [34]: 103%
residual activity ([35]; Compound concentration 1.0 uM): 96%
residual activity ([35]; Compound concentration 10.0 uM): 86%
residual activity [36]: 31%
residual activity [37]: 111%
residual activity [38]: 93.5%
residual activity [39]: 87%
residual activity [40]: 100%
residual activity [41]: 91%
residual activity [42]: 93%
